{"source": "patent US7319021B2", "about": "“Cell lysis composition, methods of use, apparatus and kit” (Promega Corporation, priority 2002, dated 2008)", "key": {"E. coli cells [1]": {"test_system": "E. coli cells", "test": "Release of Renilla Luciferase from E. coli (Example 2)", "format": "cell-based", "description": "E. coli bacteria expressing His-tagged Renilla Luciferase were grown in Luria Broth [L Broth]+10 ng/ml tetracycline [Tet] [50 ml of media in a 250 ml flask] at 37° C. overnight in a shaking incubator rotating at 200 RPM. The E. coli strain was prepared by transforming E. coli with a vector expressing histidine-tagged Renilla luciferase. The vector was constructed by conventional methods. See Maniatis et al., “Molecular Cloning: A Laboratory Manual,” 2nd Edition, Cold Spring Harbor Laboratory, Cold Spring Harbor, N.Y. (1982). Following overnight culture the bacterial cells were diluted 1:100 into fresh L broth+Tet and grown to a density of 0.6 at 600 nm [OD 600 0.6] at 37C on the shaking incubator. Renilla expression was induced by addition of isopropyl-beta-D-thiogalactopyranoside (IPTG) from a 1M filter sterilized solution to a final concentration of 1 mM. The culture was grown for 4 additional hours at 37C on the shaking incubator before use.\nOne ml of the Renilla luciferase expressing E. coli culture was added to each of 12 tubes, labeled 1 through 12: tubes 1-3, no further addition; tubes 4-6, 10 ul of 10 mg/ml lysozyme; tubes […], 100 ul of CLR formulation A, and; tubes 10-12, 100 ul of CLR formulation A and 10 ul of 10 mg/ml lysozyme. […]"}, "E. coli cells [2]": {"test_system": "E. coli cells", "test": "Optical density and visual turbidity of E. coli culture after treatment (Example 2)", "format": "cell-based", "description": "E. coli bacteria expressing His-tagged Renilla Luciferase were grown in Luria Broth [L Broth]+10 ng/ml tetracycline [Tet] [50 ml of media in a 250 ml flask] at 37° C. overnight in a shaking incubator rotating at 200 RPM. The E. coli strain was prepared by transforming E. coli with a vector expressing histidine-tagged Renilla luciferase. The vector was constructed by conventional methods. See Maniatis et al., “Molecular Cloning: A Laboratory Manual,” 2nd Edition, Cold Spring Harbor Laboratory, Cold Spring Harbor, N.Y. (1982). Following overnight culture the bacterial cells were diluted 1:100 into fresh L broth+Tet and grown to a density of 0.6 at 600 nm [OD 600 0.6] at 37C on the shaking incubator. Renilla expression was induced by addition of isopropyl-beta-D-thiogalactopyranoside (IPTG) from a 1M filter sterilized solution to a final concentration of 1 mM. The culture was grown for 4 additional hours at 37C on the shaking incubator before use. […]\n900 ul of 20 mM Tris-HCl pH 7.3 and 100 ul of the corresponding solutions were added to each of 12 disposable plastic cuvettes. After the instrument background was set to zero with a 20 mM Tris-HCl pH 7.3 solution at an optical density of 600 nm (OD600), and the optical density of the solutions was measured."}}, "note": "“And” between values parts separate entries of the source, which are not always exact repeats. Identical values can stand only once.", "data": [{"substance": "lysozyme: 10 mg/ml solution of lysozyme [Sigma L 6876] in 20 mM Tris-HCl buffer, pH 7.3; 10 ul per ml culture", "values": [{"measurement": "Relative Light Units Resuspended Pellet Sample", "setting": "E. coli cells [1]; 2 ul of pellet resuspended in 800 ul", "value": "58.41 Relative Light Units and 60.99 Relative Light Units and 72.03 Relative Light Units"}, {"measurement": "Relative light Units, Supernatant Sample", "setting": "E. coli cells [1]; 2 ul of supernatant", "value": "0.053 Relative light Units and 0.074 Relative light Units and 0.048 Relative light Units"}, {"measurement": "OD600", "setting": "E. coli cells [2]; 100 ul of treated culture in 900 ul 20 mM Tris-HCl pH 7.3, culture expressing His-tagged Renilla Luciferase", "value": "0.3264 and 0.3261 and 0.3033"}, {"measurement": "level of turbidity, visual inspection", "setting": "E. coli cells [2]; tubes inverted 10 times", "value": "very turbid"}]}]}
